The record followed here is patent US20240083872A1, “CYCLIC AMINE DERIVATIVES HAVING SEROTONIN RECEPTOR BINDING ACTIVITY” (Shionogi & Co., Ltd., priority 2020, published 2024).

Like-named read-outs stand apart in the source and are kept apart here.

Test [1] concerns the target human recombinant 5-HT2A receptor (Homo sapiens (Human), UniProt P28223). As to the kind of experiment: 5-HT2A receptor binding inhibition test ([3H]-Ketanserin). The following applies: Jump-In HEK cell membrane. The procedure: Test Example 1: 5-HT2A Receptor Binding Inhibition Test
(§1) (Each Experimental Condition)
Cell membrane: Jump-In HEK cell membrane (expressing human recombinant 5-HT2A receptor)
(§2) Assay buffer: Tris-HCl 50 mmol/L (pH 7.4) containing NaCl 120 mmol/L, MgCl2.6H2O 1 mmol/L, KCl 5 mmol/L, 0.1% BSA, and CaCl2 2 mmol/L
Radioactive ligand: [^3H]-Ketanserin around Kd value calculated by the following method
(§3) Non-specific ligand: Serotonin HCl
(§4) The Kd value was calculated when the lot of cell membrane was changed. In advance, 0.5 μL of a 1 mmol/L compound for non-specific binding calculation dissolved in DMSO or DMSO was dispensed into a microplate, and the cell membrane was diluted with an Assay buffer. The radioactive ligand solution was serially diluted and the count was confirmed with a liquid scintillator. Assay buffer containing diluted cell membrane was dispensed into a microplate at 50 μL/well. Then, the radioactive ligand solution was dispensed into a microplate at 50 μL/well, and the plate was sealed. It was allowed to stand at room temperature (25° C.) for 1.5 hours. During this period, 50 mmol/L Tris-HCl (pH 7.4) was dispensed into a GF/B UniFilter plate at 50 μL/well and allowed to stand at 4° C. for 1 hour or longer. After that, filtration was performed with Cell harvester (PerkinElmer). The radioactive ligand solution was dispensed into an empty well of the GF/B UniFilter plate at 10 μL/well. After the GF/B UniFilter plate was dried at room temperature, MicroScinti 20 was dispensed into the GF/B UniFilter plate at 50 μL/well, and the plate was sealed. The GF/B UniFilter plate was allowed to stand overnight at room temperature. The radioactivity of [^3H]-Ketanserin bound to the 5-HT2A receptor was measured using Microbeta2 (PerkinElmer) at a measurement time of 1 min/well. The Saturation curve was drawn from the measured value, and the Kd value was calculated from the slope of the Scatchard Plot.
(§5) (Binding Test of the Compound According to the Present Invention)
(§6) In advance, 0.5 μL of the compound solution dissolved in DMSO was dispensed into a microplate, and the cell membrane and the hot ligand were diluted with Assay buffer, respectively. Then, the Assay buffer containing the diluted cell membrane was dispensed into a microplate at 50 μL/well. Then, the radioactive ligand solution was dispensed into a microplate at 50 μL/well, and the plate was sealed. Then, it was allowed to stand at room temperature (25° C.) for 1.5 hours. During this period, 50 mmol/L Tris-HCl (pH 7.4) was dispensed into a GF/B UniFilter plate at 50 μL/well and allowed to stand at 4° C. for 1 hour or longer. After that, filtration was performed with Cell harvester (PerkinElmer). After the GF/B UniFilter plate was dried at room temperature, MicroScinti 20 was dispensed into the GF/B UniFilter plate at 50 μL/well, and the plate was sealed. The GF/B UniFilter plate was allowed to stand overnight at room temperature. The radioactivity of [^3H]-Ketanserin bound to the 5-HT2A receptor was measured using Microbeta2 (PerkinElmer) at a measurement time of 1 min/well. The non-specific binding was calculated from the radioactivity of [^3H]-Ketanserin in the presence of […] Serotonin HCl with the unlabeled ligand, and the total binding was calculated from the radioactivity of [^3H]-Ketanserin in the absence of the compound according to the present invention (Vehicle). Finally, the Ki value was calculated from the dose-response curve.
(§7) (The binding activity of the compound according to the present invention was calculated from the following binding inhibition rate (%).)
(§8) Inhibition rate (%)=[1−(c−a)/(b−a)]×100 • a; mean cpm of non-specific binding • b; mean cpm of total binding • c; cpm in the presence of the test compound

Test [2] concerns the target human recombinant 5-HT2C receptor (Homo sapiens (Human), UniProt P28335). As to the kind of experiment: 5-HT2C receptor binding inhibition test ([3H]-Mesulergine). As to conditions: Jump-In HEK cell membrane, [3H]-Mesulergine. The procedure: as §1
Cell membrane: Jump-In HEK cell membrane (expressing human recombinant 5-HT2C receptor)
as §2
Radioactive ligand: [^3H]-Mesulergine around Kd value calculated by the following method
as §3
as §4, with “[…]” for “4°”, “The radioactivity of [^3H]-Ketanserin bound to the 5-HT2A receptor was measured using Microbeta2 (PerkinElmer) at a measurement time of 1 min/well.” left out
as §5
as §6, with “37° C.” for “room temperature (25° C.)”, “2” for “1.5”, “The radioactivity of [^3H]-Ketanserin bound to the 5-HT2A receptor was measured using Microbeta2 (PerkinElmer) at a measurement time of 1 min/well.” left out, “[^3H]-Mesulergine” for “[^3H]-Ketanserin”
as §7, §8

Setting [3] is: read-out: human serotonin 5-HT2A receptor binding activity, Ki value.
Setting [4] is: read-out: human serotonin 5-HT2C receptor binding inhibitory activity, Ki value.

Chain of human recombinant 5-HT2A receptor (P28223 whole entry): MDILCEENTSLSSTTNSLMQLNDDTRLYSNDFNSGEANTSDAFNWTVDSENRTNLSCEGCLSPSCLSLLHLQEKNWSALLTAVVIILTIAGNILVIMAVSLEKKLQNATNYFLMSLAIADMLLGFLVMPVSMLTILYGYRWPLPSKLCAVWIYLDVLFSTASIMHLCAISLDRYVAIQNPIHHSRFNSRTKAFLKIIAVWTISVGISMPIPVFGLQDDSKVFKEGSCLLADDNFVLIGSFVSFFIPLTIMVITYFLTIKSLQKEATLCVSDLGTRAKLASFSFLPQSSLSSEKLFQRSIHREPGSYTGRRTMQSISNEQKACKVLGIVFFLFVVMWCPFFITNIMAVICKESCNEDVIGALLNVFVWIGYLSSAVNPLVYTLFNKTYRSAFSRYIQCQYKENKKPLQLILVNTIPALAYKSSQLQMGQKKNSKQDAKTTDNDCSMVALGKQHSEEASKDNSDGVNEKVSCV
Chain of human recombinant 5-HT2C receptor (P28335 33-458): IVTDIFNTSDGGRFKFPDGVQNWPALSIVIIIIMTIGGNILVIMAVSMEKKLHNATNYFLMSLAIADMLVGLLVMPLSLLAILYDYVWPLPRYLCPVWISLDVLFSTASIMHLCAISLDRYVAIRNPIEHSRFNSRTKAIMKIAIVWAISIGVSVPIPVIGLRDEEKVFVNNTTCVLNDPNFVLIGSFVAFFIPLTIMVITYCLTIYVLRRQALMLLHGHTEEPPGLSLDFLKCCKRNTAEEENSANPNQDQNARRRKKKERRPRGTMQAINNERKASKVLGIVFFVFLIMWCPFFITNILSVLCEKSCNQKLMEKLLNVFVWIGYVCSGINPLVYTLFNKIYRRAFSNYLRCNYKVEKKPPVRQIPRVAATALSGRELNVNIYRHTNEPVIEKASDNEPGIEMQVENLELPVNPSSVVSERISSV

One may read the Ki as a dissociation constant, usually derived from enzyme kinetics or from competition with a known ligand. On to `CCCCOc1ccc(CN(Cc2coc(CF)n2)C(=O)NC2CCN(C)CC2)cc1` [Compound I-119], for which the Ki in test [1] (read-out: h-5-HT2A Ki) and in test [2] (read-out: h-5-HT2C Ki) was less than 10 nM in each case.

For `CC(C)COc1ccc(CN(Cc2ccn(C)n2)C(=O)NC2CCCN(C)CC2)cc1` (racemic) [Compound I-004], the Ki is 4.51 nM in test [1] (setting [3]) and 11.5 nM in test [2] (setting [4]).

`CC(C)COc1ccc(CN(Cc2cnn(C)n2)C(=O)NC2CCN(C)CC2)cc1F` [Compound I-116]: the inhibition constant Ki in test [1] (read-out: h-5-HT2A Ki) and in test [2] (read-out: h-5-HT2C Ki) was less than 10 nM each time.

For `CC(C)COc1ccc(CN(Cc2ccc(F)cn2)C(=O)N[C@@H]2CCNC[C@@H]2F)cc1` (single isomer, unassigned) [Compound I-022], the Ki in test [1] (read-out: h-5-HT2A Ki) and in test [2] (read-out: h-5-HT2C Ki) was 10 to 100 nM each time.

With `CC(C)COc1ccc(CN(Cc2ccncn2)C(=O)NC2CCN(C)CC2)cc1` [Compound I-019], the Ki was in the range of 10 to 100 nM in test [1] (read-out: h-5-HT2A Ki) and 100 to 5000 nM in test [2] (read-out: h-5-HT2C Ki).

Consider `CCCCOc1ccc(CN(Cc2coc(C)n2)C(=O)N[C@H]2CCN(C)CC23CC3)c(F)c1` [Compound I-091], for which the Ki in test [1] (read-out: h-5-HT2A Ki) and in test [2] (read-out: h-5-HT2C Ki) was less than 10 nM throughout.

In the case of `CCCCOc1ccc(CN(Cc2coc(C)n2)C(=O)N[C@H]2CCN(C)CC23CC3)cc1F` [Compound I-090], the Ki in test [1] (read-out: h-5-HT2A Ki) and in test [2] (read-out: h-5-HT2C Ki) was less than 10 nM each time.

As to `CC(C)COc1ccc(CN(Cc2ccn(C)n2)C(=O)N[C@H]2CCN(C)C[C@H]2F)cc1` [Compound I-049], the Ki in test [1] (read-out: h-5-HT2A Ki) and in test [2] (read-out: h-5-HT2C Ki) was less than 10 nM each time.

As for `CN1CCC(NC(=O)N(Cc2ccc3c(c2)CCO3)Cc2ccn(C)n2)CC1` [Compound I-015], the Ki in test [1] (setting [3]) was 45.5 nM.

`CCCCOc1ccc(CN(Cc2cnn(C)n2)C(=O)N[C@H]2CCN(C)CC23CC3)cc1` [Compound I-098]: the Ki in test [1] (read-out: h-5-HT2A Ki) and in test [2] (read-out: h-5-HT2C Ki) was less than 10 nM in each case.

Turning to `Cc1nc(CN(Cc2ccc(OCC(C)C)c(F)c2)C(=O)NC2CCN(C)CC2)co1` [Compound I-115], the Ki in test [1] (read-out: h-5-HT2A Ki) and in test [2] (read-out: h-5-HT2C Ki) was less than 10 nM in each case.

Regarding `CC(C)COc1ccc(CN(Cc2ccn(C)n2)C(=O)NC2CCN(C)C2)cc1` (racemic) [Compound I-054], in test [1] (read-out: h-5-HT2A Ki), the Ki was less than 10 nM.

For `CC(C)COc1ccc(CN(Cc2cccn2C)C(=O)NC2CCN(C)CC2)cc1` [Compound I-009], the results for the Ki in test [1] (read-out: h-5-HT2A Ki) and in test [2] (read-out: h-5-HT2C Ki) were less than 10 nM and 100 to 5000 nM, respectively.

`CC(C)COc1ccc(CN(Cc2nccs2)C(=O)NC2CCN(C)CC2)cc1` [Compound I-025]: the Ki in test [1] (read-out: h-5-HT2A Ki) and in test [2] (read-out: h-5-HT2C Ki) was 10 to 100 nM in each case.

On to `CC(C)COc1ccc(CN(Cc2ccn(C)n2)C(=O)N[C@@H]2CCNC[C@H]2F)cc1` (racemic) [Compound I-018], for which the Ki in test [1] (read-out: h-5-HT2A Ki) and in test [2] (read-out: h-5-HT2C Ki) was 10 to 100 nM throughout.

`CC(C)COc1ccc(CN(Cc2ccc(F)cn2)C(=O)N[C@H]2CCNC[C@H]2F)cc1` (single isomer, unassigned) [Compound I-006]: the Ki in test [1] (setting [3]) was determined as 0.968 nM; in test [2] (setting [4]) it was 2.47 nM.

With `CN1CCC(NC(=O)N(Cc2ccc(Oc3ccccc3)cc2)Cc2ccn(C)n2)CC1` [Compound I-003], the Ki in test [1] (setting [3]) was 9.93 nM; in test [2] (setting [4]) it was 8.39 nM.

With `CC(C)COc1ccc(CN(Cc2ccco2)C(=O)NC2CCN(C)CC2)cc1` [Compound I-024], the Ki in test [1] (read-out: h-5-HT2A Ki) and in test [2] (read-out: h-5-HT2C Ki) was less than 10 nM each time.

Regarding `COc1ccc(CN(Cc2coc(C)n2)C(=O)OC2CCN(C)CC2)cc1` [Compound I-095], the Ki in test [1] (read-out: h-5-HT2A Ki) and in test [2] (read-out: h-5-HT2C Ki) was 10 to 100 nM in each case.

With `CCCc1ccc(CN(Cc2coc(C)n2)C(=O)NC2CCN(C)CC2)c(F)c1` [Compound I-114], the Ki in test [1] (read-out: h-5-HT2A Ki) and in test [2] (read-out: h-5-HT2C Ki) was less than 10 nM in each case.

On to `CCCCOc1ccc(CN(Cc2coc(C)n2)C(=O)NC2CCN(C)CC2)c(F)c1` [Compound I-113], for which the Ki in test [1] (read-out: h-5-HT2A Ki) and in test [2] (read-out: h-5-HT2C Ki) was less than 10 nM each time.

As to `CN1CCC(NC(=O)N(Cc2ccc(OC(F)(F)F)cc2)Cc2ccn(C)n2)CC1` [Compound I-046], the Ki stood at 3.09 nM in test [1] (setting [3]) and 14.5 nM in test [2] (setting [4]).

With `CCCCOc1ccc(CN(Cc2coc(C)n2)C(=O)CN2CCN(C)CC2)cc1` [Compound I-106], the Ki in test [1] (read-out: h-5-HT2A Ki) and in test [2] (read-out: h-5-HT2C Ki) was less than 10 nM throughout.

As to `CC(C)COc1ccc(CN(Cc2ccn(C)c2)C(=O)NC2CCN(C)CC2)cc1` [Compound I-040], the values for the Ki in test [1] (read-out: h-5-HT2A Ki) and in test [2] (read-out: h-5-HT2C Ki) were less than 10 nM and 10 to 100 nM, respectively.

For the compound `CC(C)COc1ccc(CN(Cc2cc(-c3ccccc3)n(C)n2)C(=O)NC2CCN(C)CC2)cc1` [Compound I-055], the Ki in test [1] (read-out: h-5-HT2A Ki) was in the range of 10 to 100 nM.

Turning to `CC(C)COc1ccc(CN(Cc2ccn(C)n2)C(=O)N[C@@H]2C[C@H]3CCC[C@@H](C2)N3C)cc1` [Compound I-074], the Ki in test [1] (read-out: h-5-HT2A Ki) was less than 10 nM.

With `CC(C)COc1ccc(CN(Cc2ccn(C)n2)C(=O)NC2CCN(C3COC3)CC2)cc1` [Compound I-071], the Ki in test [1] (read-out: h-5-HT2A Ki) was in the range of 100 to 5000 nM.

For `CC(C)COc1ccc(CN(Cc2ccn(C)n2)C(=O)N[C@H]2C[C@H]3CCC[C@@H](C2)N3C)cc1` [Compound I-073], the Ki in test [1] (read-out: h-5-HT2A Ki) lay in the range of 100 to 5000 nM.

For `CC(C)COc1ccc(CN(Cc2ccn(C)n2)C(=O)N[C@@H]2C[C@H]3CC[C@@H](C2)N3C)cc1` [Compound I-062], the Ki in test [1] (read-out: h-5-HT2A Ki) lay within 10 to 100 nM.

For `CNC(=O)CN1CCC(NC(=O)N(Cc2ccc(OCC(C)C)cc2)Cc2ccn(C)n2)CC1` [Compound I-072], in test [1] (read-out: h-5-HT2A Ki), the Ki is 100 to 5000 nM.

As for `CC(C)COc1ccc(CN(Cc2ccnn2C)C(=O)NC2CCN(C)CC2)cc1` [Compound I-053], the Ki in test [1] (read-out: h-5-HT2A Ki) lay within 100 to 5000 nM.

On to `CC(C)COc1ccc(CN(Cc2cc(C(F)(F)F)ccn2)C(=O)NC2CCN(C)CC2)cc1` [Compound I-056], for which, in test [1] (read-out: h-5-HT2A Ki), the Ki is 10 to 100 nM.

As for `CC(C)COc1ccc(CN(Cc2cccnc2)C(=O)NC2CCN(C)CC2)cc1` [Compound I-057], the Ki in test [1] (read-out: h-5-HT2A Ki) is 100 to 5000 nM.

For the compound `CC(C)COc1ccc(CN(Cc2ccncc2)C(=O)NC2CCN(C)CC2)cc1` [Compound I-052], the Ki in test [1] (read-out: h-5-HT2A Ki) lay within 10 to 100 nM.
